In patent publication US11065319B2, “Methods for diagnosing and reducing incidences of cardiac allograft rejection” (3DT Holdings, LLC, priority 2014, dated 2021):
Values joined by “and” are separate entries in the source; they are usually repeats but may differ in a detail not shown here. Identical values can stand only once. “Also recorded” adds a separate entry of the source.

Legend:
[1] = system: IgM in human heart biopsies; assay: Displacement (elution) of IgM from human heart transplant biopsies; type: binding; conditions: for removal of IgM from heart biopsies by incubation: PC 50 mM, CRP 2.58 mg/ml, albumin 1 mg/ml; for vascular IgM in biopsy after incubation (immunohistochemistry): displacement experiments; for IgM anti-PC in biopsy eluates (ELISA): eluates after incubation of biopsies; for IgM in western blots of biopsy eluates: following incubation of biopsies
Protocol: To verify if the IgM removed from the heart biopsies is PC-specific, ELISA was performed.
One hundred and seventy-two (172) adult heart transplant patients (having a number of serial biopsies per patient in first three months post-transplant) were followed for several years and subsequently analyzed. CAV was diagnosed with serial angiographies for each patient. The percentage of microvascular IgM was quantified with double staining (IgM/CD31 or Ulex europaeus lectin). IgM and IgM anti-phosphorylcholine (PC) from biopsy eluates were determined with immunoblotting and enzyme-linked immunosorbent assays (ELISAs). Statistical analyses used univariate logistic regression, multivariate stepwise models, and Kaplan-Meier curves for different tertile groups.

cardiac allograft = assay: Heterotopic heart transplant model of CAV with PC vaccination; type: in vivo, mice; conditions: mouse model of heart transplantation
Protocol: In addition to the mechanisms underlying MΦ differentiation and the effect of NAbs thereon, it is also important to identify what artheroprotective effect (if any) a PC vaccination may have in vivo. In an attempt to determine if experimental induction of IgM anti-PC NAbs have a beneficial effect on graft rejection and survival, experiments were conducted in an in vivo heart transplant model to measure such antibodies' affect on CAV and graft survival. Specifically, heart transplants and experimental vaccination were performed in normal mice (C57BL/6) and in IgM-deficient mice. Thereafter, IgM antibody response was measured, and a determination made as to what (if any) effect the vaccination had on graft survival.
The study used a 2×3 factorial design to test the (a) main effect of immunization defined by 3 conditions: experimental vaccination vs. negative control (vaccination with KLH vehicle) vs. positive control (intra-peritoneal mouse polyclonal IgM); and (b) main effect of mouse genotype—normal C57BL/6 vs. IgM-deficient mice—on cardiac graft rejection (see Table 2). […]
All mice underwent heart transplantation at 16 weeks of age, 8 weeks after initial vaccination. […] Cardiac allograft viability was thereafter assessed by daily abdominal palpation. […]
Graft survival curves were calculated in accordance with the Kaplan-Meier method. […]

IgM anti-PC NAbs = assay: PC-KLH immunization of mice, serum IgM anti-PC by ELISA; type: in vivo
Description: In group 1, normal C57BL/6 mice (IgG+IgM producers) were immunized by PC-keyhole limpet hemocyanin (PC-KLH) to induce anti-PC NAb production. In group 2, IgM-deficient mice that have impaired IgM antibody production, but still have an IgG response were immunized.
As controls for PC immunization, mice of the same genotypes were vaccinated with KLH. These procedures define the conditions of a 2×2 factorial design, as depicted in Table 1, with 2 immunization conditions (PC or KLH), and 2 mouse genotypes (normal C57BL/6 and IgM-deficient). Eight weeks after immunization, all mice were euthanized by CO2 inhalation. Mouse sera from these animals was subsequently used to conduct the two in vitro studies. Additionally, the mouse serum IgM-anti-PC was analyzed using custom ELISA. Specifically, to establish the inflammatory milieu in the mouse sera used for the in vitro experiments, the sera was analyzed for pro-inflammatory TNF-α, IFN-γ, IL-1β, IL-6, IL-12 and anti-inflammatory IL-10 IL-4, IL-13, and TGF-β cytokines (SearchLight Multiplex Assay System, Aushom Biosystems).

[2] = system: human aortic and microvascular endothelial cells; assay: Incubation of cultured endothelial cells with CRP (cell activation); type: cell-based; conditions: incubation with CRP vs controls without CRP
Description: Additionally, note the absence of ICAM-1 (subpart A of FIG. 7) and NF-κB nuclear expression (subpart C of FIG. 7) in the controls that lacked CRP exposure.

Molecule | removal of IgM from heart biopsies by incubation [1] | vascular IgM in biopsy after incubation (immunohistochemistry) [1] | IgM anti-PC in biopsy eluates (ELISA) [1] | IgM in western blots of biopsy eluates [1] | graft survival (cardiac allograft) | production of specific IgM anti-PC NAbs (IgM anti-PC NAbs) | ICAM-1 expression [2] | NF-κB nuclear localization [2]
C[N+](C)(C)CCOP(=O)(O)O [PC, phosphorylcholine] | removed IgM from the biopsies; also recorded: can be removed | removal of IgM; also recorded: showed biopsy removal | 56.67±19.96 U/ml and 56.7±20.0 U/ml | showed IgM | positive effect on graft survival | induced the production of specific IgM anti-PC NAbs | – | –
CRP: C-reactive protein, pro-inflammatory molecule | removed IgM from the biopsies; also recorded: can be removed | removal of IgM; also recorded: showed biopsy removal | 60.49±18.26 U/ml and 60.5±18.3 U/ml | showed IgM | – | – | increased ICAM-1 expression | nuclear factor-kappa B (NF-κB) nuclear localization
